Data published in ChEMBL document CHEMBL1147522, “1,2,3,4-tetrahydrocarbazoles as 5-HT6 serotonin receptor ligands” (Bioorg Med Chem Lett, 2004).

Each compound was assayed against 5-hydroxytryptamine receptor 6 (Homo sapiens, UniProt P50406) (assay: Ability to displace [3H]LSD from human 5-hydroxytryptamine 6 receptor transiently expressed in COS-7 cells).
Assay type: cell-based

Chain of 5-hydroxytryptamine receptor 6 (P50406 whole entry): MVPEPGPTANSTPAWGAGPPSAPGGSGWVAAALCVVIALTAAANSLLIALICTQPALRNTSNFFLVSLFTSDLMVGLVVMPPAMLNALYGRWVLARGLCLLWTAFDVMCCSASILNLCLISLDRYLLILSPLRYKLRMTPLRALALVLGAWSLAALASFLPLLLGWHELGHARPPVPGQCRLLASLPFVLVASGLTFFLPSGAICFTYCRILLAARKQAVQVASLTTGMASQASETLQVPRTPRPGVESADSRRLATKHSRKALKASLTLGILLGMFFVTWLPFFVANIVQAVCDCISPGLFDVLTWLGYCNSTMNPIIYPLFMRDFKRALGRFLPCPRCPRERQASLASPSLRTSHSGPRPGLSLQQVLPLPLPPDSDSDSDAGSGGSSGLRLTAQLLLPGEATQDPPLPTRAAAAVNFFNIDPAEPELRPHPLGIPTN

SMILES	Ki [nM]
COc1ccc2c(c1)c1c(n2S(=O)(=O)c2ccc(N)cc2)CCCC1	29
COc1ccc2c(c1)c1c(n2S(=O)(=O)c2ccc3ccccc3c2)CCCC1CN(C)C (stereo unspecified)	5.1
COc1ccc2c(c1)c1c(n2C(=O)c2ccc(N)cc2)CCCC1	6000
Nc1ccc(S(=O)(=O)n2c3ccccc3c3ccccc32)cc1	49
COc1ccc(OC)c(S(=O)(=O)n2c3c(c4cc(OC)ccc42)C(CN(C)C)CCC3)c1 (stereo unspecified)	0.3
COc1ccc2c(c1)c1c(n2S(=O)(=O)Cc2ccccc2)CCCC1CN(C)C (stereo unspecified)	200
COc1ccc2c(c1)c1c(n2Cc2ccc(N)cc2)CCCC1	6000
COc1ccc2c(c1)c1c(n2S(=O)(=O)c2cccc3cccnc23)CCCC1CN(C)C (stereo unspecified)	7.6
COc1ccc2c(c1)c1c(n2S(=O)(=O)c2cccc3ccccc23)CCCC1CN(C)C (stereo unspecified)	14
CN(C)CC1CCCc2c1c1ccccc1n2Cc1ccccc1 (stereo unspecified)	64
COc1ccc2c(c1)c1c(n2S(=O)(=O)c2ccccc2)CCCC1CN(C)C (stereo unspecified)	2.3

Second part, the compound after the results:

Ki [nM]	SMILES
2	COc1ccc2c(c1)c1c(n2S(=O)(=O)c2ccc(N)cc2)CCCC1CN(C)C (stereo unspecified)
9.4	COc1ccc2c(c1)c1c(n2S(=O)(=O)c2ccc(C)cc2)CCCC1CN(C)C (stereo unspecified)
2.4	COc1ccc2c(c1)c1c(n2S(=O)(=O)c2ccc(I)cc2)CCCC1CN(C)C (stereo unspecified)
47	COc1ccc(S(=O)(=O)n2c3c(c4cc(OC)ccc42)C(CN(C)C)CCC3)cc1 (stereo unspecified)
5	COc1ccc2c(c1)c1c(n2S(=O)(=O)c2ccc(Cl)cc2)CCCC1CN(C)C (stereo unspecified)
